Measurements: ChEMBL document CHEMBL4483862, “Open-source discovery of chemical leads for next-generation chemoprotective antimalarials” (2018)

System: Plasmodium berghei
Experiment: Luciferase/luciferin-expressing antifolate-resistant parasites were used to infect a culture of HepG2 cells that were pre-incubated with compounds. Infected hepatocytes emit light due to the luciferase reaction. Assay results are presented as the percent inhibition of light emission compared to control. […]
Format: functional
Details: sporozoite; for IC90: read-out: LUCIFERASE INFECTION ASSAY - IC90
[1] = read-out: LUCIFERASE INFECTION ASSAY - IC50

Compound: O=C(Cc1cc(Br)sc1Br)Nc1cccc(C(F)(F)F)c1
- IC50 [1]: > 7.45 µM
- IC90: > 7.45 µM

Compound: COc1ccc(C(=O)C(/C=N/N)=N/Nc2ccc(C(F)(F)F)cc2)cc1
- IC50 (HEPG2TOX_HILL_SLOPE 1.78, HEPG2TOX_R_SQUARED 0.947, PBLUC_HILL_SLOPE 3.28, PBLUC_R_SQUARED 0.359, read-out: LUCIFERASE INFECTION ASSAY - IC50): 4.5 µM
- IC90: 8.8 µM

Compound: C=CCc1ccc(O)c(-c2ccc(O)c(CC=C)c2)c1 [HONOKIOL]
- IC50 (FFLUC_HILL_SLOPE 14.9, FFLUC_R_SQUARED 0.388, read-out: LUCIFERASE INFECTION ASSAY - IC50): > 12.4 µM
- IC90: > 12.4 µM

Compound: Cc1ccc(C(=O)NCCSc2ccc(Cl)cc2)o1
- IC50 [1]: > 10 µM
- IC90: > 10 µM

Compound: Cc1cc(NNC(=O)Nc2ccc(Cl)cc2)nc2c1c(C)nn2C
- IC50 (HEPG2TOX_HILL_SLOPE 1.06, HEPG2TOX_R_SQUARED 0.939, PBLUC_HILL_SLOPE 2, PBLUC_R_SQUARED 0.223, read-out: LUCIFERASE INFECTION ASSAY - IC50): 4.05 µM
- IC90: > 9.57 µM

Compound: O=C(c1ccccc1)c1cc(-c2nc3ccccc3[nH]2)c(-c2ccccc2)n2c1nc1ccccc12
- IC50 (FFLUC_HILL_SLOPE 3.37, FFLUC_R_SQUARED 0.587, PBLUC_HILL_SLOPE 3.5, PBLUC_R_SQUARED 0.455, read-out: LUCIFERASE INFECTION ASSAY - IC50): 6.85 µM
- IC90: > 10 µM

Compound: Cc1ccc(NC(=O)COc2ccc3c(c2C)OC(C)(C)CC3)cc1
- IC50 (PBLUC_HILL_SLOPE 1.51, PBLUC_R_SQUARED 0.601, read-out: LUCIFERASE INFECTION ASSAY - IC50): 3.8 µM
- IC90: > 9.72 µM

Compound: COc1ccc(-c2cc3c(n(C)c2=O)CCN(C(=O)C(C)n2nc(C)cc2C)C3)c2ccc(C)nc12 (stereo not given)
- IC50 [1]: > 6.8 µM
- IC90: > 6.8 µM

Compound: O=[N+]([O-])c1ccccc1Sc1sc2ncnc(N/N=C/c3cccs3)c2c1-c1ccccc1
- IC50 (FFLUC_HILL_SLOPE 2.47, FFLUC_R_SQUARED 0.702, HEPG2TOX_HILL_SLOPE 1.48, HEPG2TOX_R_SQUARED 0.963, PBLUC_HILL_SLOPE 5.47, PBLUC_R_SQUARED 0.841, read-out: LUCIFERASE INFECTION ASSAY - IC50): 0.785 µM
- IC90: 1.17 µM

Compound: CNc1snc(C)c1C(=O)OCc1coc(-c2cccs2)n1
- IC50 (PBLUC_HILL_SLOPE 23.3, PBLUC_R_SQUARED 0.377, read-out: LUCIFERASE INFECTION ASSAY - IC50): 0.0168 µM
- IC90: 0.0184 µM

Compound: O=C(NC1CC1)c1csc(C(O)c2cccc(Cl)c2)n1 (stereo not given)
- IC50 [1]: 3.36 µM
- IC90: > 10 µM

Compound: N=C(N)N/N=C\c1cccc2ccccc12
- IC50 (PBLUC_HILL_SLOPE 1.61, PBLUC_R_SQUARED 0.436, read-out: LUCIFERASE INFECTION ASSAY - IC50): 6.92 µM
- IC90: > 15.5 µM

Compound: COc1cc(NC(=O)Cc2c(F)cccc2Cl)cc(OC)c1OC
- IC50 [1]: > 10 µM
- IC90: > 10 µM

Compound: CC(C)c1ccc(-c2ccc3nnc(-c4ccc5nccnc5c4)n3c2)cc1
- IC50 [1]: > 10 µM
- IC90: > 10 µM

Compound: O=C(Nc1ccnn1-c1nc2ccccc2[nH]1)C(c1ccccc1)c1ccccc1
- IC50 [1]: 5.95 µM
- IC90: 9.69 µM

Compound: O=c1cc(N2CCCN(c3ccc(C(F)(F)F)cn3)CC2)nc2ccccn12
- IC50 (PBLUC_HILL_SLOPE 2.47, PBLUC_R_SQUARED 0.397, read-out: LUCIFERASE INFECTION ASSAY - IC50): 5.84 µM
- IC90: > 10 µM

Compound: Cc1nc(C(=O)N2CCc3c(c(C(=O)NCc4ccccn4)nn3CCc3ccccc3)C2)cs1
- IC50 (PBLUC_HILL_SLOPE 26.7, PBLUC_R_SQUARED 0.676, read-out: LUCIFERASE INFECTION ASSAY - IC50): 2.27 µM
- IC90: 2.47 µM

Compound: CSCCC(NC(=O)c1ccc([N+](=O)[O-])cc1Cl)C(=O)OCC(=O)Nc1ccc(OC(F)(F)F)cc1 (stereo not given)
- IC50 [1]: > 10 µM
- IC90: > 10 µM

Compound: Oc1cccc(-c2cnc3cnc(-c4cccs4)cn23)c1
- IC50 [1]: > 11.2 µM
- IC90: > 11.2 µM

Compound: Cc1nn(-c2ccccc2)nc1C(=O)NNC(=S)Nc1ccc(Cl)cc1
- IC50 [1]: > 8.53 µM
- IC90: > 8.53 µM

Compound: CN(CCO)C(=O)Nc1sc2c(c1C(N)=O)CCC2
- IC50 [1]: > 11.6 µM
- IC90: > 11.6 µM

Compound: O=C1c2ccccc2C(O)(C#Cc2ccccc2)N1c1ccccc1 (stereo not given)
- IC50 (HEPG2TOX_HILL_SLOPE 4.52, HEPG2TOX_R_SQUARED 0.977, PBLUC_HILL_SLOPE 3.23, PBLUC_R_SQUARED 0.385, read-out: LUCIFERASE INFECTION ASSAY - IC50): 4.28 µM
- IC90: 8.45 µM

Compound: CCCCCCn1c(SCc2cc(=O)oc3cc(C)ccc23)nnc1-c1c[nH]c2ccccc12
- IC50 (PBLUC_HILL_SLOPE 85.8, PBLUC_R_SQUARED 0.0287, read-out: LUCIFERASE INFECTION ASSAY - IC50): 9.99 µM
- IC90: > 10 µM

Compound: COc1cccc(N2CCN(CC(=O)c3c[nH]c4ccccc34)CC2C)c1 (stereo not given)
- IC50 (PBLUC_HILL_SLOPE 1.43, PBLUC_R_SQUARED 0.653, read-out: LUCIFERASE INFECTION ASSAY - IC50): 4.63 µM
- IC90: > 9.08 µM

Compound: CCCCOc1ccc(Nc2nc(C(N)Cc3ccc(F)cc3)cs2)nn1 (stereo not given)
- IC50 (PBLUC_HILL_SLOPE 19.3, PBLUC_R_SQUARED 0.0642, read-out: LUCIFERASE INFECTION ASSAY - IC50): 8.34 µM
- IC90: > 8.52 µM

Compound: OCc1ccc(-c2cnc3ccc(-c4cncnc4)nn23)cc1
- IC50 (HEPG2TOX_HILL_SLOPE 10.3, HEPG2TOX_R_SQUARED 0.526, PBLUC_HILL_SLOPE 13.6, PBLUC_R_SQUARED 0.613, read-out: LUCIFERASE INFECTION ASSAY - IC50): 3.24 µM
- IC90: 3.81 µM

Compound: COc1cc(-c2cn3c(-c4ccc5ncccc5c4)cnc3cn2)cc(OC)c1OC
- IC50 (HEPG2TOX_HILL_SLOPE 2.69, HEPG2TOX_R_SQUARED 0.906, PBLUC_HILL_SLOPE 2.74, PBLUC_R_SQUARED 0.535, read-out: LUCIFERASE INFECTION ASSAY - IC50): 3.55 µM
- IC90: 7.92 µM

Compound: O=C(Nc1cccc(-c2nc3ccccc3[nH]2)c1)c1cccc(S(=O)(=O)N2CCCC2)c1
- IC50 [1]: > 10 µM
- IC90: > 10 µM

Compound: C=C(C)[C@@H]1CC=C(CN2CCC3(CC2)C(=O)N(CCCc2cccnc2)C(=O)N3CC)CC1
- IC50 (HEPG2TOX_HILL_SLOPE 0.525, HEPG2TOX_R_SQUARED 0.846, PBLUC_HILL_SLOPE 1.68, PBLUC_R_SQUARED 0.809, read-out: LUCIFERASE INFECTION ASSAY - IC50): 1.86 µM
- IC90: 6.89 µM

Compound: CC(=O)c1ccc(N2CCN(c3nc4ccccc4s3)CC2)cc1
- IC50 [1]: 3.62 µM
- IC90: > 10 µM

Compound: COc1cccc(-c2ccc3ncc(-c4ccc5c(c4)OCO5)n3n2)c1
- IC50 (HEPG2TOX_HILL_SLOPE 2.64, HEPG2TOX_R_SQUARED 0.763, PBLUC_HILL_SLOPE 3.7, PBLUC_R_SQUARED 0.498, read-out: LUCIFERASE INFECTION ASSAY - IC50): 4.97 µM
- IC90: 9 µM

Compound: Cn1ccc2cc(-c3cn4c(-c5ccc(Cl)cc5)cnc4cn3)ccc21
- IC50 [1]: 0.247 µM
- IC90: 0.448 µM

Compound: CC(C)Nc1cc(-c2ccccc2)nc2c(-c3ccccc3)cnn12
- IC50 (PBLUC_HILL_SLOPE 1.35, PBLUC_R_SQUARED 0.594, read-out: LUCIFERASE INFECTION ASSAY - IC50): 2.01 µM
- IC90: > 10 µM

Compound: Cc1ccc2nc(SCC(=O)c3cc(C)n(-c4ccc5c(c4)OCCO5)c3C)[nH]c2c1
- IC50 (FFLUC_HILL_SLOPE 12.9, FFLUC_R_SQUARED 0.345, HEPG2TOX_HILL_SLOPE 0.403, HEPG2TOX_R_SQUARED 0.877, read-out: LUCIFERASE INFECTION ASSAY - IC50): > 10 µM
- IC90: > 10 µM

Compound: CC(C)(C)c1ccc(C(=O)NNC(=O)c2ccc(CSc3ccc(C(F)(F)F)cn3)o2)cc1
- IC50 [1]: > 6.91 µM
- IC90: > 6.91 µM

Compound: CCn1c2ccccc2c2cc(/C=C3\SC(=S)N(CCCN(C)C)C3=O)ccc21
- IC50 [1]: > 10 µM
- IC90: > 10 µM

Compound: CC(C)c1ccc(Nc2nccc3nc(-c4cccc(C(F)(F)F)c4)[nH]c23)cc1
- IC50 (HEPG2TOX_HILL_SLOPE 8.02, HEPG2TOX_R_SQUARED 0.493, PBLUC_HILL_SLOPE 1.32, PBLUC_R_SQUARED 0.475, read-out: LUCIFERASE INFECTION ASSAY - IC50): 4.04 µM
- IC90: > 10 µM

Compound: CC(Nc1ccc2c(c1)OC(F)(F)O2)C(=O)Nc1ccc(Cl)cn1 (stereo not given)
- IC50 [1]: > 10 µM
- IC90: > 10 µM

Compound: CN(C(=O)COC(=O)c1nc(Cl)c(Cl)c(Cl)c1Cl)C1CCS(=O)(=O)C1 (stereo not given)
- IC50 (HEPG2TOX_HILL_SLOPE 15.2, HEPG2TOX_R_SQUARED 0.451, read-out: LUCIFERASE INFECTION ASSAY - IC50): > 10 µM
- IC90: > 10 µM

Compound: NC(=O)c1cccc(-c2ccc3ncc(-c4cccs4)n3n2)c1
- IC50 (HEPG2TOX_HILL_SLOPE 0.701, HEPG2TOX_R_SQUARED 0.861, PBLUC_HILL_SLOPE 2.21, PBLUC_R_SQUARED 0.712, read-out: LUCIFERASE INFECTION ASSAY - IC50): 4.09 µM
- IC90: > 10 µM

Compound: CC(=O)c1cccc(-c2cnc3ccc(-c4cccc(Cl)c4)nn23)c1
- IC50 (HEPG2TOX_HILL_SLOPE 0.743, HEPG2TOX_R_SQUARED 0.718, PBLUC_HILL_SLOPE 1.63, PBLUC_R_SQUARED 0.591, read-out: LUCIFERASE INFECTION ASSAY - IC50): 2.24 µM
- IC90: 8.63 µM

Compound: Cn1cc(-c2cn3c(-c4ccc(C#N)cc4)cnc3cn2)cn1
- IC50 (PBLUC_HILL_SLOPE 4.44, PBLUC_R_SQUARED 0.515, read-out: LUCIFERASE INFECTION ASSAY - IC50): 9.55 µM
- IC90: > 11 µM

Compound: O=C(Nc1ccc(OC(F)(F)F)cc1)Nc1nnc(C(F)(F)F)s1
- IC50 (HEPG2TOX_HILL_SLOPE 2.11, HEPG2TOX_R_SQUARED 0.979, PBLUC_HILL_SLOPE 11.8, PBLUC_R_SQUARED 0.539, read-out: LUCIFERASE INFECTION ASSAY - IC50): 0.313 µM
- IC90: 0.377 µM

Compound: CCCCNC(=O)NC(=O)CNc1cc(S(=O)(=O)N2CCCCC2)ccc1OCC
- IC50 (HEPG2TOX_HILL_SLOPE 3.87, HEPG2TOX_R_SQUARED 0.807, PBLUC_HILL_SLOPE 2.62, PBLUC_R_SQUARED 0.78, read-out: LUCIFERASE INFECTION ASSAY - IC50): 5.03 µM
- IC90: > 10 µM

Compound: O=c1nc(SCc2ccc(Cl)cc2Cl)[nH]c2ccccc12
- IC50 [1]: > 9.79 µM
- IC90: > 9.79 µM
